{"source": "paper PMC8869333", "about": "“Alpha-Glucosidase and Alpha-Amylase Inhibitory Activities, Molecular Docking, and Antioxidant Capacities of Plectranthus ecklonii Constituents” (Antioxidants, 2022)", "key": {"[1]": {"assay": "Trolox equivalent absorbance capacity (TEAC) assay", "details": "Trolox equivalents; stock solution 1 mg/mL", "method": "The TEAC assay was carried out in accordance with the method described previously. The stock solutions, which contained 7 mM of ABTS and 140 mM of K2S2O8, were prepared and kept at −2 °C. The working solution was then prepared by adding 88 μL of K2S2O8 solution to 5 mL of ABTS solution. The two solutions were mixed and allowed to react for 24 h at room temperature in the dark. Trolox was used as a standard, with concentrations ranging between 0 and 500 μM. After 24 h, the ABTS mix solution was diluted with ethanol to read a start-up absorbance (control) of approximately 2.0 (±0.1). The stock solution (1 mg/mL) of a methanol extract and purified compounds (25 μL) were allowed to react with 300 μL of ABTS in the dark at room temperature for 30 min. The absorbance was read at 734 nm at 25 °C in the plate reader. The results are expressed as μM Trolox equivalents per milligram dry weight (μM/TE/g) of the test samples."}, "alpha-glucosidase": {"target": "T1, alpha-glucosidase (Saccharomyces cerevisiae, UniProt P53341)", "T1 construct": "purchased Sigma-Aldrich", "T1 sequence (P53341 whole entry)": "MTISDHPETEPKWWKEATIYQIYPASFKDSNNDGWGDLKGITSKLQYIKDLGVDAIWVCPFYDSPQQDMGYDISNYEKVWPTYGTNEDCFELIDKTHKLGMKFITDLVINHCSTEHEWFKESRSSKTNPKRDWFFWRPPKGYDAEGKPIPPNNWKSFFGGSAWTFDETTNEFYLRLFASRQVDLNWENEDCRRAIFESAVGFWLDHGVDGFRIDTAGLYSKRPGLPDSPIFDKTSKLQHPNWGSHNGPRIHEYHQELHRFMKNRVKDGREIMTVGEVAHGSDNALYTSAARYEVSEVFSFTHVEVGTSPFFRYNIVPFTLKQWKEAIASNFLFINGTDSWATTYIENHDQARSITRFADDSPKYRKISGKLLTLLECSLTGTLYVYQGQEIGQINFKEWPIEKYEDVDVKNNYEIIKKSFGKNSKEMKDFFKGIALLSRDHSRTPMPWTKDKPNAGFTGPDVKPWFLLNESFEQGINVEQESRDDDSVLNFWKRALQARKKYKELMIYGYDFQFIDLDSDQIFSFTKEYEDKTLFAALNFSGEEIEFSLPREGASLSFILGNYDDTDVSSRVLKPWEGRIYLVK", "assay": "Alpha-glucosidase inhibitory activity (pNPG substrate, absorbance 405 nm)", "type": "biochemical", "method": "The organic solvents used in this study were supplied by Merck, Cape Town, South Africa. The NMR spectra were carried out on an Avance 400 MHz spectrometer (Bruker, Rheinstetten, Germany) using deuterated chloroform. Preparative HPLC was utilized for the purification of compounds using HPLC-grade methanol and distilled water.\nThe reaction was stopped by adding 50 μL of sodium carbonate Na2CO3 (0.1 M). […] Each experiment was repeated three times."}, "[2]": {"assay": "Ferric-ion reducing antioxidant power (FRAP) assay", "details": "ascorbic acid equivalents; stock solution 1 mg/mL", "method": "The FRAP assay was carried out in accordance with the method described previously. In a 96-well plate, 10 μL of the stock solution (1 mg/mL w/v) of the isolated compounds (1–3) was mixed with 300 μL of FRAP reagent. The FRAP reagent was prepared by mixing (10:1:1, v/v/v) of acetate buffer (300 mM, pH 3.6), tripyridyl triazine (TPTZ) (10 mM in 40 mM HCl), and FeCl3.6H2O (20 mM). Incubation commenced at room temperature for 30 min, and the plate was read at a wavelength of 593 nm in a Multiskan spectrum plate reader (Thermo Fisher Scientific). L-Ascorbic (Sigma-Aldrich, Cape Town, South Africa) was used as a standard, with concentrations varying between 0 and 1000 μM. Further dilutions were carried out with the samples that were highly concentrated, and such dilution factors were recorded and used for calculations of the affected samples. The results are expressed as μM ascorbic acid equivalents per milligram dry weight (μM AAE/g) of the test samples."}, "[3]": {"assay": "Oxygen radical absorbance capacity (ORAC) assay", "details": "Trolox equivalents; stock solution 1 mg/mL", "method": "ORAC assay was conducted according to the previous method with slight modifications. The method measured the antioxidant scavenging capacity of thermal decomposition generated by peroxyl radical of 2,2-azobis (2-amino-propane) dihydrochloride (AAPH) as peroxyradical (ORACROO^.) generator. The loss of fluorescence of fluorescein (probe) was an indication of the extent of its oxidation through reaction with the peroxyl radical. The protective effect of an antioxidant was measured by assessing the fluorescence area under the curve (AUC) plot relative to that of blank in which no antioxidant was present. The analyzer was programmed to record the fluorescence of fluorescein every 2 min after AAPH was added. The fluorescein solution and sample were added in the wells of an illuminated 96-well plate, and 12 μL of each sample in a stock solution of 1 mg/mL was combined with 138 μL of a fluorescein working solution, followed by the addition of 50 μL of 150 mg of AAPH prepared in situ in 6 mL phosphate buffer. Absorbance was measured with a Fluoroskan spectrum plate reader with the excitation wavelength set as 485 nm and the emission wavelength at 530 nm. A calibration curve was used, using a Trolox stock solution of concentration in the range of 83–417 μM (R^2 = 0.9514). The ORAC values were calculated using a regression equation (Y = a + bX + Cx^2) between Trolox concentration (Y in μM) and the net area under the fluorescence decay curve (X). ORAC values are expressed as μMTE/mg of a test sample. Samples without perfect curve were further diluted, and the dilution factors were used for the calculation of such samples."}, "[4]": {"details": "cited from earlier work"}}}
{"compound": "COc1cc(C(=O)OC2CC(C)(C)C3=CC=C4C=C(C(C)C)C(=O)C(O)=C4C3(C)C2)ccc1O", "note": "(centres unmarked) [Compound 3, parvifloron G]", "values": [{"measurement": "TEAC", "setting": "[1]", "result": "3526.1 ± 0.6", "unit": "µM TE/g"}, {"measurement": "IC50", "setting": "alpha-glucosidase", "result": 88.9, "unit": "µM"}, {"measurement": "FRAP", "setting": "[2]", "result": "1455.4 ± 2.0", "unit": "µM AAE/g"}]}
{"compound": "O=C(O[C@@H]1Cc2c(O)cc(O)cc2O[C@@H]1c1cc(O)c(O)c(O)c1)c1cc(O)c(O)c(O)c1", "note": "[EGCG, epigallocatechin gallate, reference compound]", "values": [{"measurement": "TEAC", "setting": "[1]", "result": "4146.4 ± 19.8", "unit": "µM TE/g"}, {"measurement": "ORAC", "setting": "[3]", "result": "3976.82 ± 3.8", "unit": "µM TE/g"}, {"measurement": "FRAP", "setting": "[2]", "result": "7524.1 ± 4.9", "unit": "µM AAE/g"}]}
{"compound": "parvifloron D [Compound 1]", "values": [{"measurement": "IC50", "setting": "[4]; read-out: DPPH radical scavenging IC50", "result": "1300 ± 100", "unit": "µM"}, {"measurement": "TEAC", "setting": "[1]", "result": "470.3 ± 2.2", "unit": "µM TE/g"}, {"measurement": "ORAC", "setting": "[3]", "result": "3942.9 ± 7.1", "unit": "µM TE/g"}, {"measurement": "FRAP", "setting": "[2]", "result": "1043.9 ± 2.6", "unit": "µM AAE/g"}]}
{"compound": "parvifloron F [Compound 2]", "values": [{"measurement": "EC50", "setting": "[4]; read-out: DPPH radical scavenging EC50", "result": 131, "unit": "µM"}, {"measurement": "TEAC", "setting": "[1]", "result": "1069.3 ± 2.4", "unit": "µM TE/g"}, {"measurement": "ORAC", "setting": "[3]", "result": "1726.1 ± 2.6", "unit": "µM TE/g"}, {"measurement": "FRAP", "setting": "[2]", "result": "1155.5 ± 2.3", "unit": "µM AAE/g"}]}
